Assay results reported in patent publication US20260240901A1, “COMBINATION OF NITROUS OXIDE AND 5-HT2A RECEPTOR AGONISTS” (Cybin IRL Limited, priority 2022, published 2026).
Read-outs that look alike come from different tables or passages of the source.

Legend:
[1] = in vivo; cited from earlier work
[2] = human, intravenous; cited from earlier work
[3] = test system: head-twitch responses (HTRs); conditions: 1 mg/kg, intraperitoneal, rats and mice; cited from earlier work
[4] = test system: human participants; conditions: cited from earlier work
[5] = rats, intraperitoneal injection; cited from earlier work
[6] = test system: neural oscillations; experiment: Experiment 7: topographic pharmaco-EEG mapping of N2O+DMT (planned); conditions: healthy humans, following DMT administration
[7] = Plasma pharmacokinetics of co-administered DMT and DMT-d10 in male rats (IV bolus, oral gavage, inhalation); conditions: for time of highest plasma concentration (first time point taken): IV bolus 1 mg/kg each; for time of highest plasma concentration (first time point taken) / mean residence time (MRT) after inhalation compared to IV administration: male rats; for F (bioavailability), inhalation: inhalation 14.3 (DMT) + 15.5 (DMT-d10) mg/kg, calculated from dose normalized AUC0-1 mean values vs Group 4 IV; for mean residence time (MRT) after inhalation compared to IV administration: inhalation vs IV; for AUC0-1/dose: plasma
[8] = Brain pharmacokinetics of co-administered DMT and DMT-d10 in male rats (IV bolus); assay type: in vivo, Sprague Dawley rats; conditions: for Brain Cmax: IV bolus 1 mg/kg each, co-dosed (Group 4)
Experimental: Experimental Design. This was a single dose study with 4 treatment groups as outlined in Table 1.
Sampling collection. PK samples (0.3 mL) were collected from the jugular vein by venepuncture into tubes containing K2EDTA anticoagulant at the following sampling times: Group 1 (IV) and Group 2 (oral) serial plasma collection at 0.083, 0.25, 0.5, 1, 3, 8 and 24 hr postdose; Group 4 (IV) composite plasma and brain collection at 0.083, 0.25, 0.5 and 1 hr postdose; Group 6 (inhalation) serial plasma collection at 0.333, 0.533, 0.833, 1.333, 3.333, 8.333 and 24.333 after start of inhalation.
Brain samples: After extraction of whole brain from the cranium, brains were rinsed, patted dry, weighed, placed into tubes and frozen on dry ice. Thereafter, they were stored at −70 […] pending analysis.
Bioanalysis. Plasma and brain homogenates were analyzed for DMT and DMT-d10 using an established LC-MS/MS assay.) Pharmacokinetic parameters were determined from the DMT and DMT-d 10 plasma and brain concentration-time profiles using commercially available software (Phoenix® WinNonlin®).

[9] = test system: c-fos; experiment: RTqPCR gene expression in mouse left frontal cortex: c-fos; conditions: 60 min treatment + 60 min room air, DMT-d10 5.6 mg/kg s.c., N2O 50% inhaled
[10] = test system: bdnf; experiment: RTqPCR gene expression in mouse left frontal cortex: bdnf; assay type: in vivo, mice (C57B16/J); conditions: 60 min treatment + 60 min room air, DMT-d10 5.6 mg/kg s.c., N2O 50% inhaled
[11] = test system: early growth response protein 2 (egr2); experiment: RTqPCR gene expression in mouse left frontal cortex: egr2; conditions: 60 min treatment + 60 min room air, DMT-d10 5.6 mg/kg s.c., N2O 50% inhaled
[12] = test system: serum/glucocorticoid regulated kinase 1 (sgk1); experiment: RTqPCR gene expression in mouse left frontal cortex: sgk1; conditions: 60 min treatment + 60 min room air, DMT-d10 5.6 mg/kg s.c., N2O 50% inhaled
[13] = test system: Adult Male Laboratory Mice (C57B16/J); experiment: Locomotor activity (distance travelled, Ethovision) in mice; assay type: in vivo; conditions: DMT-d10 5.6 mg/kg s.c.; for Mean rank diff., total distance travelled: Dunn's multiple comparisons, Veh/Air vs. treatment, N2O 50% inhaled
[14] = target: T1, serotonin 5-HT2A receptor (Mus musculus, UniProt P35363); experiment: Head twitch response (HTR) in mice, DMT-d10 with or without N2O; assay type: in vivo, mice (C57B16/J); conditions: DMT-d10 5.6 mg/kg s.c.; for head twitch responses (HTRs), result in words: mice, room air or N2O 50%, first 30 minutes; for Mean rank diff., total HTRs: Dunn's multiple comparisons, Veh/Air vs. treatment, N2O 50% inhaled
T1 construct: Mice were exposed to a medium dose of the 5-HT2A agonist DMT-d10; from tissue; host or cells: living adult male C57Bl6/J mice (in vivo behavioural assay)
Experimental: Experiment 1—Effect of N2O on the pharmacodynamic effects of DMT-d10. The dose-dependent behavioral effects of N2O on DMT-d10-induced head twitch response (HTR) in mice was determined.
Rationale: The head-twitch response (HTR) is a rapid side-to-side head movement that occurs in mice and rats after the serotonin 5-HT2A receptor is activated. The HTR is widely used as a behavioral assay for 5-HT2A activation and to probe for interactions between the 5-HT2A receptor and other transmitter systems (see Halberstadt, A. L. & Geyer, M. A. Characterization of the head-twitch response induced by hallucinogens in mice: detection of the behavior based on the dynamics of head movement. Psychopharmacology (Berl) 227, 10.1007/s00213-013-3006-z (2013); Canal, C. E. & Morgan, D. Head-twitch response in rodents induced by the hallucinogen 2,5-dimethoxy-4-iodoamphetamine: a comprehensive history, a re-evaluation of mechanisms, and its utility as a model. Drug Test Anal 4, 556-576 (2012)).
Data analysis: The number of head twitches over the first 30 minutes was summed (0-15 minutes, 15-30 minutes intervals) and analyzed by non-parametric Kruskal Wallis test with Dunn's multiple comparison tests between groups.

[15] = test system: fibroblast growth factor 2 (fgf2); experiment: RTqPCR gene expression in mouse left frontal cortex: fgf2; conditions: 60 min treatment + 60 min room air, DMT-d10 5.6 mg/kg s.c., N2O 50% inhaled
[16] = test system: syn1; experiment: RTqPCR gene expression in mouse left frontal cortex: syn1; assay type: in vivo, mice (C57B16/J); conditions: 60 min treatment + 60 min room air, DMT-d10 5.6 mg/kg s.c., N2O 50% inhaled
[17] = test system: homer1; experiment: RTqPCR gene expression in mouse left frontal cortex: homer1; assay type: in vivo, mice (C57B16/J); conditions: 60 min treatment + 60 min room air, DMT-d10 5.6 mg/kg s.c., N2O 50% inhaled
[18] = IV bolus of DMT (as fumarate salt) 0.05-0.4 mg/kg
[19] = Inhalation 14.3 (DMT) / 15.5 (DMT-d10) mg/kg
[20] = brain, male rats, IV bolus 1 mg/kg each (Group 4)

T1 sequence (P35363 whole entry): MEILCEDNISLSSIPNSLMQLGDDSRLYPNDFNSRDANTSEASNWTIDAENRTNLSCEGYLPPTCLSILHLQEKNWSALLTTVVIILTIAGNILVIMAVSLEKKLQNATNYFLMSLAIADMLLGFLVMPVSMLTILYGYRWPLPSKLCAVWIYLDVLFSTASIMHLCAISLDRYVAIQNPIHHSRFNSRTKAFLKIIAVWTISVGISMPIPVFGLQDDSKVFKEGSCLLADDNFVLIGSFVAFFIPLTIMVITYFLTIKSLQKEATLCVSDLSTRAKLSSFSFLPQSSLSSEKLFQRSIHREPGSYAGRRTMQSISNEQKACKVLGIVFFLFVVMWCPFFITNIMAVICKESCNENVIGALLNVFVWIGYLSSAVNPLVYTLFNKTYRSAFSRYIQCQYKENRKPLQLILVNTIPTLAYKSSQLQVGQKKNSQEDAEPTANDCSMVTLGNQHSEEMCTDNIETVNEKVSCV

| SMILES | elimination half-life [1] | time of highest plasma concentration (first time point taken) [7] | F (bioavailability), inhalation [7] | mean residence time (MRT) after inhalation compared to IV administration [7] | AUC0-1/dose [7, 19] | AUC0-1/dose ([7]; Intravenous 1 mg/kg each) | AUC0-1/dose ([7]; Oral 10 mg/kg each) | Brain AUC0-t [8, 20] | Brain Cmax ([8]; brain, male rats) | c-fos gene expression, percentage change compared to control (Veh/Air), % mean [9] | bdnf gene expression, percentage change compared to control (Veh/Air), % mean [10] | egr2 gene expression, percentage change compared to control (Veh/Air), % mean [11] | sgk1 gene expression, percentage change compared to control (Veh/Air), % mean [12] | Mean rank diff., total distance travelled ([13]; minutes 0-15) | Mean rank diff., total distance travelled ([13]; minutes 15-30) | head twitch responses (HTRs), result in words [14] | Mean rank diff., total HTRs ([14]; minutes 0-15) | Mean rank diff., total HTRs ([14]; minutes 15-30) | fgf2 gene expression, percentage change compared to control (Veh/Air), % mean [15] | syn1 gene expression, percentage change compared to control (Veh/Air), % mean [16] | further results |
| --- | --- | --- | --- | --- | --- | --- | --- | --- | --- | --- | --- | --- | --- | --- | --- | --- | --- | --- | --- | --- | --- |
| CN(C)CCc1c[nH]c2ccccc12 [DMT, N,N-dimethyltryptamine] | 12 to 19 min | 0.083 h | 16.3% | approximately 5 × | 18.2 | 112 | 1.52 | 1060 ng·h/g | 3430 ng/g | – | – | – | – | – | – | – | – | – | – | – | half-life [2]: around 15 minutes; time to peak plasma concentrations [2]: approximately 2 minutes; hallucinogenic potential as measured by head-twitch responses (HTRs) [3]: sub-hallucinogenic; hallucinogenic effect ([4]; 0.1 mg/kg IV): not hallucinogenic; hallucinogenic effect ([4]; 0.2 and 0.4 mg/kg IV): nearly instantaneous onset of visual hallucinatory phenomena; time by which psycho-biological effects resolve [4, 18]: ≤ 30 minutes; time of peak of psycho-biological effects [4, 18]: 120 seconds; duration of effect of vaporized DMT ([4]; vaporized or inhaled free-base, 40-50 mg): less than 30 min; half-life [5]: 5 to 15 min; time to be metabolized and cleared from brain, liver, and plasma [5]: ≤ 1 h; absolute power in EEG frequency bands [6]: decreased absolute power in all frequency bands; Brain AUC0-inf [8, 20]: 1070 ng·h/g |
| [N-]=[N+]=O [N2O, nitrous oxide] | – | – | – | – | – | – | – | – | – | 32.29% | 15.67% | 38.30% | 33.82% | −11.40 | −8.000 | attenuates DMT-d10-induced HTRs | −1.250 | 0.000 | 5.24% | 13.38% | homer1 gene expression, percentage change compared to control (Veh/Air), % mean [17]: 29.35% |
| COc1ccc2[nH]cc(CCN(C)C)c2c1 [5-MeO-DMT, 5-methoxy-N,N-dimethyltryptamine] | 12 to 19 min | – | – | – | – | – | – | – | – | – | – | – | – | – | – | – | – | – | – | – | – |
| [2H]C([2H])([2H])N(C([2H])([2H])[2H])C([2H])([2H])C([2H])([2H])c1c[nH]c2ccccc12 [DMT-d10] | – | 0.083 h | 22.6% | approximately 5 × | 17.0 | 75.4 | 0.878 | 931 ng·h/g | 1490 ng/g | 18.57% | −9.25% | 8.24% | 15.58% | 16.50 | 19.30 | modest number of HTRs | −22.65 | −12.80 | 3.13% | 1.47% | distance travelled (locomotor behavior), result in words ([13]; mice, room air or N2O 50%, minutes 0-15 and 15-30): travelled less distance than the vehicle/air group; homer1 gene expression, percentage change compared to control (Veh/Air), % mean [17]: 2.44%; increase of inhalation bioavailability by deuteration ([7]; DMT-d10 vs. DMT, inhalation, rats): approximately 40%; improvement of brain to plasma (B/P) ratio by deuteration ([8]; DMT-d10 vs. DMT, IV 1 mg/kg, rats): approximately 30% |
